Reference: patent US20090054504A1 (KNOPP NEUROSCIENCES, INC., priority 2007, published 2009)
Where “and” joins values, the source holds several entries; their conditions need not be identical. Identical values can stand only once. Like-named read-outs stand apart in the source and are kept apart here.

Legend:
[1] = target: human cloned dopamine receptors (D3) (Homo sapiens, UniProt P35462); test: biochemical
Method: (§1) These concentrations were tested in cell lines expressing select human cloned dopamine receptors (D2S, D3).

human subjects = details: cited from earlier work; for MRTD (maximum recommended therapeutic dose): FDA MRTD database
rodents = details: single oral dose; cited from earlier work
[2] = tested on: restless legs syndrome patients; details: human trials; cited from earlier work
[3] = tested on: monkeys treated with MPTP; details: motor deficits and Parkinson-like symptoms; cited from earlier work
[4] = tested on: non-naïve male beagle dogs
Method: (§3) Doses were administered orally by gavage and clinical observations were taken continuously following dosing: hourly for the first four hours, and then twice daily cage-side observations for the duration of the inter-dose or post-dose interval. Observations were made of clinical signs, mortality, injury and availability of food and water. Animals were fasted for 24 hr prior to dosing. Dogs in each group were exposed to only one drug, or the combination; each dose was administered only once, with a subsequent dose administered after a recovery period of 4 days.

in vivo [5] = details: male, dog
Method: as §3

D1 dopamine receptor = D1 dopamine receptor (Homo sapiens, UniProt P21728); details: literature and own data
Chain of D1 dopamine receptor (P21728 whole entry): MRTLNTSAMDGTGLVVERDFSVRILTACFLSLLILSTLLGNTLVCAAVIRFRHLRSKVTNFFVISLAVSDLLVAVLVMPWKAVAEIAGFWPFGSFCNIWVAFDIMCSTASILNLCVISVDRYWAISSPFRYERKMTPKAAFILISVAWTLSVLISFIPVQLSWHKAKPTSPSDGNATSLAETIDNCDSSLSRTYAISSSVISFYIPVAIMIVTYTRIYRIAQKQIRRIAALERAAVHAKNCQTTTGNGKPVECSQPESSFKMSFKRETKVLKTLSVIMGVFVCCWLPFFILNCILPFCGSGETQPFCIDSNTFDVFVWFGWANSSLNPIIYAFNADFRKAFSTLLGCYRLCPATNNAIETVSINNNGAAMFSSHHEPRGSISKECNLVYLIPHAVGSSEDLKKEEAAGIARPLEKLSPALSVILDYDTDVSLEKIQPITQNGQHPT
Method: as §1

D5 dopamine receptor = D5 dopamine receptor (Homo sapiens, UniProt P21918); details: literature and own data
Chain of D5 dopamine receptor (P21918 whole entry): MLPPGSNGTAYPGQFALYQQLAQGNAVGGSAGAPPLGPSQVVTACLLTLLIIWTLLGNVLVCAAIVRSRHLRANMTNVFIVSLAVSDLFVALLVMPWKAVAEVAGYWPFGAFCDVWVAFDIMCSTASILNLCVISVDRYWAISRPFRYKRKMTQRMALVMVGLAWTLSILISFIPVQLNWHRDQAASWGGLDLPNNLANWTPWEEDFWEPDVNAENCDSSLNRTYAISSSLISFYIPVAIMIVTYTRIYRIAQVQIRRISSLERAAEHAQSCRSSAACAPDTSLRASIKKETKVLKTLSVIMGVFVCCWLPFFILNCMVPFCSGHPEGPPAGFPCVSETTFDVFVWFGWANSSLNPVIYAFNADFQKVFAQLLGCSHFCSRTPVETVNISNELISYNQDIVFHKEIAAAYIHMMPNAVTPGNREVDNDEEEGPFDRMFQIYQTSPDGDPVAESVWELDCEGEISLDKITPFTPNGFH
Method: as §1

[6] = tested on: monkeys treated with MPTP; details: from MPTP monkey dose
dogs = details: single oral dose; cited from earlier work
[7] = tested on: Parkinson's disease patients; details: human trials; cited from earlier work
minipigs [8] = details: 6-month study, any dose level
clinical [9] = details: human, oral, Fasted; for Cmax: mean ± SD; for Tmax: median
Method: (§4) The first panel was administered a single IR dose of 50 mg, followed 48 hours later by 4½ days of multiple IR dosing (twice daily) at 50 mg Q12 hours. The second panel was administered a single IR dose of 100 mg, followed 48 hours later by 4½ days of multiple IR dosing (twice daily) at 100 mg Q12 hours. Safety observations included vital signs, physical examination, clinical laboratory tests, ECGs, and adverse event reporting. Blood samples were collected pre-dose on Day 1 and serially for 48 hours post-dose to assess the single-dose pharmacokinetics.

minipigs [10] = tested on: minipigs
minipigs [11] = details: past month 7, any dose level
healthy adult volunteers [12] = tested on: healthy adult volunteers
Method: as §4

rats [13] = details: 6-month study, any dose level
healthy adult volunteers [14] = test: clinical; details: for CL/F / Ue / Fe / λZ: mean ± SD
Method: (§2) Safety observations included vital signs, physical examination, clinical laboratory tests, ECGs, and adverse event reporting. Blood and urine samples were collected pre-dose and for 72 hours post-dose to assess the pharmacokinetics.

clinical [15] = details: human, blood, oral
Method: as §2

rats [16] = tested on: rats
Method: 3.3—Toxicology Studies. […] Following this study, 3- and 6-month repeat dose toxicology studies were completed at doses of 30, 100, and 300 mg/kg.

minipigs [17] = details: both, minipig, in vivo, 14 days
Method: (§5) The 3- and 6-month repeat dose studies have now been completed at the 7.5, 25 and 50 mg/kg dose levels and the 9-month repeat dose study is ongoing.

D2 dopamine receptor = test: D2 binding affinity from journal publications (Schneider & Mierau 1987; Wong & Shrikhande 2003); details: range over the literature sources
in vivo [18] = details: both, minipig
Method: as §5

[19] = male, beagle, dog, in vivo, 1 study day
[20] = male, beagle, dog, in vivo, 8 study day
[21] = blood, 50 mg, CL002, 50 mg Q12H (Day 1)
[22] = blood, 50 mg, CL002, 50 mg Q12H (Day 7)
[23] = in vivo, 100 mg, CL002, 100 mg Q12H (Day 1)
[24] = in vivo, 100 mg, CL002, 100 mg Q12H (Day 7)
[25] = CL002, 50 mg Q12H (Day 1), Fasted, mean ± SD
[26] = CL002, 50 mg Q12H (Day 7), Fasted, mean ± SD
[27] = CL002, 100 mg Q12H (Day 1), Fasted, mean ± SD
[28] = CL002, 100 mg Q12H (Day 7), Fasted, mean ± SD
[29] = Day 1, 50 mg IR oral, fasted, mean ± SD
[30] = Day 1, 100 mg IR oral, fasted, mean ± SD
[31] = Day 7, 50 mg after Q12H Days 3-6, fasted, mean ± SD
[32] = Day 7, 100 mg after Q12H Days 3-6, fasted, mean ± SD

Chain of human cloned dopamine receptors (D3) (P35462 whole entry): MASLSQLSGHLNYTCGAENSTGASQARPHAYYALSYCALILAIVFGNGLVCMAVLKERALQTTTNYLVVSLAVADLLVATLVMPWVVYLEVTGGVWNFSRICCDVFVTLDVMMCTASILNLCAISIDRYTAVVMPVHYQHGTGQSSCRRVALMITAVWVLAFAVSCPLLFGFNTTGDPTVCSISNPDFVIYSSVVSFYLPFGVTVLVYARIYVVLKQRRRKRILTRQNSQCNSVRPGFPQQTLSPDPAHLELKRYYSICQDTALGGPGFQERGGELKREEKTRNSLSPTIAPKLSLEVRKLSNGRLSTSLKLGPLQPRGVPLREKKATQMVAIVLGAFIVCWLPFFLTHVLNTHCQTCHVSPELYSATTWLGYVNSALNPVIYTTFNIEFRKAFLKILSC

CCCN[C@H]1CCc2nc(N)sc2C1 [PPX, (6S)-4,5,6,7-tetrahydro-N6-propyl-2,6-benzothiazole-diamine]
IC50 [1]: 0.94 nM
MRTD (maximum recommended therapeutic dose) (human subjects; for a 70 lb. person): 7.0 mg/day
MRTD (maximum recommended therapeutic dose) (human subjects): 0.11 mg/kg/day
immediate release dose shown to cause somnolence (human subjects; human subjects): 1.5 mg
starting daily dose not tolerated (human subjects; naïve patient): greater than 0.20 mg
immediate release doses at which deaths occurred (and above) (rodents): 70000 to 105000 µg/kg
lowest effective dose versus placebo, restless legs syndrome [2]: 0.25 mg/day
lowest effective oral immediate release dose [3]: 53 µg/kg
human dose equivalent to the dog NOAEL, for a 70 kg individual ([4]; IR dose, from dog data): 0.05 mg
human equivalence dose of the dog MTD, for a 70 kg human subject ([4]; from dog data): 0.30 mg
Behavior/Activity: Activity decreased ([4]; male, beagle, dog, in vivo): 3/4
Excretion: Feces soft ([4]; male, beagle, dog, in vivo): 0/4
Excretion: Feces watery ([4]; male, beagle, dog, in vivo): 0/4
External Appearance: Lacrimation ([4]; male, beagle, dog, in vivo): 0/4
Eye/Ocular: Pupils dilated ([4]; male, beagle, dog, in vivo): 0/4
Pelage/Skin: Skin warm to touch ([4]; male, beagle, dog, in vivo): 0/4
Behavior/Activity: Convulsions - clonic [4, 19]: 0/4
Behavior/Activity: Salivation [4, 19]: 0/4
Behavior/Activity: Tremors [4, 19]: 1/4
Excretion: Emesis [4, 19]: 3/4
Excretion: Feces hard [4, 19]: 1/4
Excretion: Feces mucoid [4, 19]: 0/4
Behavior/Activity: Activity decreased [4, 20]: 0/4
Behavior/Activity: Tremors [4, 20]: 0/4
Excretion: Emesis [4, 20]: 0/4
Excretion: Feces hard [4, 20]: 0/4
NOAEL at 4 days (in vivo [5]): 0.7 µg/kg
MTD at 4 days (in vivo [5]; po): 7.5 µg/kg
NOAEL at 4 days (in vivo [5]; po): 1.25 µg/kg
interaction with D1 dopamine receptors (D1 dopamine receptor): no significant interaction
interaction with D5 dopamine receptors (D5 dopamine receptor): no significant interaction
equivalent human immediate release dose [6]: 17 µg/kg
equivalent human immediate release dose for a 70 kg individual [6]: 1.2 mg
dose at which vomiting occurred (and above) (dogs): ≥ 0.7 µg/kg
lowest effective oral immediate release dose versus placebo, Parkinson's disease [7]: 1.1 mg/day

CCCN[C@@H]1CCc2nc(N)sc2C1 [RPPX, (6R)-4,5,6,7-tetrahydro-N6-propyl-2,6-benzothiazole-diamine]
IC50 [1]: 610 nM
mortality / clinical observations between the 13-week and 26-week sacrifices, minipigs (minipigs [8]): no mortalities attributed to test article or significant clinical observations
Cmax (clinical [9]; [21]): 139 ± 15.3 ng/mL
Cmax (clinical [9]; [22]): 191 ± 20.9 ng/mL
Tmax (clinical [9]; [21]): 1.83 h
Tmax (clinical [9]; [22]): 1.75 h
Cmax (clinical [9]; [23]): 248 ± 30.4 ng/mL
Cmax (clinical [9]; [24]): 306 ± 55 ng/mL
Tmax (clinical [9]; [23]): 1.92 h
Tmax (clinical [9]; [24]): 2 h
mortality in repeat dose studies in minipigs (minipigs [10]; 75 mg/kg level, by month 2): mortalities
target organ toxicity by histopathology after 3 months, minipigs (minipigs [10]; both, minipig, in vivo, 3 months): No target organ toxicity
deaths / clinical observations, 9-month study in minipigs (minipigs [11]): no deaths attributed to test article or significant clinical observations
increase of AUC(0-12) from Day 1 to Day 7 (healthy adult volunteers [12]; 50 mg Q12H): 40%
increase of Cmax from Day 1 to Day 7 (healthy adult volunteers [12]; 50 mg Q12H): 37%
increase of AUC(0-12) from Day 1 to Day 7 (healthy adult volunteers [12]; 100 mg Q12H): 38%
increase of Cmax from Day 1 to Day 7 (healthy adult volunteers [12]; 100 mg Q12H): 24%
AUC (inf) (healthy adult volunteers [12]; [25]): 1,502 ± 280 h*ng/mL
AUC(0-t) (healthy adult volunteers [12]; [25]): 1,463 ± 280 h*ng/mL
AUC(0−12) (healthy adult volunteers [12]; [25]): 1,035 ± 121 h*ng/mL
CL/F (healthy adult volunteers [12]; [25]): 571 ± 107 mL/h
AUC(0−12) (healthy adult volunteers [12]; [26]): 1,449 ± 221 h*ng/mL
CL/F (healthy adult volunteers [12]; [26]): 585 ± 81.6 mL/h
AUC(0-t) (healthy adult volunteers [12]; [27]): 2,545 ± 497 h*ng/mL
AUC(0−12) (healthy adult volunteers [12]; [27]): 1,776 ± 260 h*ng/mL
CL/F (healthy adult volunteers [12]; [27]): 665 ± 107 mL/h
AUC(0−12) (healthy adult volunteers [12]; [28]): 2,465 ± 299 h*ng/mL
CL/F (healthy adult volunteers [12]; [28]): 684 ± 76.1 mL/h
CL/F (healthy adult volunteers [12]; [29]): 571 ± 107 (6) mL/min
λz (healthy adult volunteers [12]; [29]): 0.1132 ± 0.0230 (6) h^−1
CL/F (healthy adult volunteers [12]; [30]): 665 ± 107 (6) mL/min
λz (healthy adult volunteers [12]; [30]): 0.1073 ± 0.0161 (6) h^−1
CL/F (healthy adult volunteers [12]; [31]): 585 ± 81.6 (6) mL/min
λz (healthy adult volunteers [12]; [31]): 0.1025 ± 0.0186 (6) h^−1
CL/F (healthy adult volunteers [12]; [32]): 684 ± 76.1 (6) mL/min
λz (healthy adult volunteers [12]; [32]): 0.0894 ± 0.0117 (6) h^−1
mortality between the 13-week and 26-week sacrifices, rats (rats [13]): no mortalities at any dose level
CL/F (healthy adult volunteers [14]; CL001, 50 mg SD, Fasted): 706 ± 182 mL/h
Ue (healthy adult volunteers [14]; CL001, 50 mg SD, Fasted): 35.3 ± 5.19 ^ mg
CL/F (healthy adult volunteers [14]; CL001, 150 mg SD, Fasted): 692 ± 183 mL/h
Ue (healthy adult volunteers [14]; CL001, 150 mg SD, Fasted): 60.5 ± 7.04 ^ mg
CL/F (healthy adult volunteers [14]; CL001, 150 mg SD, second 150 mg line, Food printed Fasted): 774 ± 165 mL/h
CL/F (healthy adult volunteers [14]; CL001, 300 mg SD, Fasted): 659 ± 260 mL/h
Ue (healthy adult volunteers [14]; CL001, 300 mg SD, Fasted): 198 ± 28.0 ^ mg
Urinary excretion of unchanged drug, share of drug elimination (healthy adult volunteers [14]; across dose levels): approximately 70%
subjects reporting at least one non-serious adverse event (healthy adult volunteers [14]; all 24 subjects (RPPX or placebo, blinded)): 46%
subjects with mild dizziness (most frequent AE) (healthy adult volunteers [14]; all subjects (RPPX or placebo, blinded)): 21%
CL/F (healthy adult volunteers [14]; single oral 50 mg, fasted): 706 ± 182 (6) mL/min
Fe (healthy adult volunteers [14]; single oral 50 mg, fasted): 70.7 ± 10.4 (6) % Dose
Ue (healthy adult volunteers [14]; single oral 50 mg, fasted): 35.3 ± 5.19 (6) mg
λZ (healthy adult volunteers [14]; single oral 50 mg, fasted): 0.1064 ± 0.0171 (6) h^−1
CL/F (healthy adult volunteers [14]; single oral 150 mg, fasted): 692 ± 183 (5) mL/min
Fe (healthy adult volunteers [14]; single oral 150 mg, fasted): 40.3 ± 4.69 (6) % Dose
Ue (healthy adult volunteers [14]; single oral 150 mg, fasted): 60.5 ± 7.04 (6) mg
λZ (healthy adult volunteers [14]; single oral 150 mg, fasted): 0.1001 ± 0.0087 (5) h^−1
CL/F (healthy adult volunteers [14]; single oral 150 mg, fed): 774 ± 165 (6) mL/min
λZ (healthy adult volunteers [14]; single oral 150 mg, fed): 0.1152 ± 0.0256 (6) h^−1
CL/F (healthy adult volunteers [14]; single oral 300 mg, fasted): 659 ± 260 (6) mL/min
Fe (healthy adult volunteers [14]; single oral 300 mg, fasted): 65.8 ± 9.33 (6) % Dose
Ue (healthy adult volunteers [14]; single oral 300 mg, fasted): 198 ± 28.0 (6) mg
λZ (healthy adult volunteers [14]; single oral 300 mg, fasted): 0.1151 ± 0.0309 (6) h^−1
Cmax (clinical [15]; 50 mg): 125 ± 22 ng/mL
Tmax (clinical [15]; 50 mg): 2.04 h
Cmax (clinical [15]; 150 mg): 360 ± 60.4 ng/mL
Tmax (clinical [15]; 150 mg): 2.04 h
Cmax (clinical [15]; 300 mg): 781 ± 158 ng/mL
Tmax (clinical [15]; 300 mg): 1.96 h
human equivalence dose of the dog MTD, for a 70 kg human subject ([4]; from dog data): about 3,000 mg
observable effects in dogs ([4]; male, beagle, dog, in vivo, 4 days): no observable effects
target organ toxicity by histopathology, 3-month study in rats (rats [16]; both, rat, in vivo, 300 mg/kg, 3 months): some target organ toxicity
target organ toxicity by histopathology, 2-week study in rats (rats [16]; both, rat, in vivo, 14 days): No target organ toxicity
mortality, 2-week study in rats (rats [16]; high dose of 500 mg/kg): caused mortality
target organ toxicity by histopathology, 2-week study in minipigs (minipigs [17]): No target organ toxicity
interaction with D1 dopamine receptors (D1 dopamine receptor): no significant interaction
interaction with D5 dopamine receptors (D5 dopamine receptor): no significant interaction
binding affinity of RPPX at the D2 receptor, times lower than PPX, literature (D2 dopamine receptor): 10-20 times and 9-21 times
NOAEL at 14 days (in vivo [18]): ≥ 75000 µg/kg
